# From patent publication US8865698B2, “Method of treatment using substituted pyrazolo[1,5-a]pyrimidine compounds” (Array BioPharma Inc., priority 2008, dated 2014)
# Target: histidine-tagged recombinant human TrkA, cytoplasmic domain (Homo sapiens (Human), UniProt P04629)
# Test: TrkA ELISA Assay
# Type: biochemical
# Settings: 2.5 nM TrkA, 500 μM ATP, 25 minutes; read-out: TrkA Elisa Enzyme IC50
# In short: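 IC50 derived by 4- or 5-parameter logistic fit of A450 signal from HRP-conjugated PY20 anti-phosphotyrosine with TMB. Reaction: poly(Glu,Ala,Tyr)-coated wells, 2.5 nM kinase, 500 μM ATP, MOPS pH 7.5 buffer with MgCl2, 25 min, ambient temperature.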
# Chain of histidine-tagged recombinant human TrkA, cytoplasmic domain (P04629 440-796): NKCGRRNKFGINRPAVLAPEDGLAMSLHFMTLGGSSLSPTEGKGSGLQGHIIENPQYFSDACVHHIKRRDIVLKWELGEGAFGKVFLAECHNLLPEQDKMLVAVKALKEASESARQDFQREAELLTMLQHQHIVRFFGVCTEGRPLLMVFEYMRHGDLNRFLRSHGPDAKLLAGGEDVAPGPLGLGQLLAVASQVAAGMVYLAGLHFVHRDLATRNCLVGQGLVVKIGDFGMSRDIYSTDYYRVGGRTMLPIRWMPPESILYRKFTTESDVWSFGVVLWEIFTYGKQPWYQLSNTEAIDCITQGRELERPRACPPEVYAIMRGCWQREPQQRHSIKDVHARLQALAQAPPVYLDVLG
row,Structure (SMILES),IC50
1,"Cc1cnc(C(=O)Nc2cnn3ccc(N4CCC[C@@H]4c4cc(F)ccc4F)nc23)cn1 [Example 58, (R)—N-(5-(2-(2,5-difluorophenyl)pyrrolidin-1-yl)pyrazolo[1,5-a]pyrimidin-3-yl)-5-methylpyrazine-2-carboxamide]",0.0031 µM
2,"Cc1cccnc1C(=O)Nc1cnn2ccc(N3CCC[C@@H]3c3cccc(F)c3)nc12 [Example 69, (R)—N-(5-(2-(3-fluorophenyl)pyrrolidin-1-yl)pyrazolo[1,5-a]pyrimidin-3-yl)-3-methylpicolinamide]",0.0062 µM
3,"O=C(Nc1cnn2ccc(N3CCC[C@@H]3c3cc(F)ccc3C(F)(F)F)nc12)N1CCC[C@H](O)C1 [Example 87, (S)—N-(5-((R)-2-(5-fluoro-2-(trifluoromethyl)phenyl)pyrrolidin-1-yl)pyrazolo[1,5-a]pyrimidin-3-yl)-3-hydroxypiperidine-1-carboxamide]",0.0146 µM
4,"COc1cccc(C(=O)Nc2cnn3ccc(N4CCC[C@@H]4c4cccc(F)c4)nc23)n1 [Example 75, (R)—N-(5-(2-(3-fluorophenyl)pyrrolidin-1-yl)pyrazolo[1,5-a]pyrimidin-3-yl)-6-methoxypicolinamide]",0.0074 µM

# Other lines, results leading:
row,IC50,Structure (SMILES)
1,0.0115 µM,"CC1(O)CN(C(=O)Nc2cnn3ccc(N4CCC[C@@H]4c4cc(F)ccc4Cl)nc23)C1 [Example 22, (R)—N-(5-(2-(2-chloro-5-fluorophenyl)pyrrolidin-1-yl)pyrazolo[1,5-a]pyrimidin-3-yl)-3-hydroxy-3-methylazetidine-1-carboxamide]"
2,0.0982 µM,"O=C(O)C1(C(=O)Nc2cnn3ccc(N4CCC[C@@H]4c4cc(F)ccc4F)nc23)CC1 [Example 34, (R)-1-(5-(2-(2,5-difluorophenyl)pyrrolidin-1-yl)pyrazolo[1,5-a]pyrimidin-3-ylcarbamoyl)cyclopropanecarboxylic acid]"
3,0.0855 µM,"O=C(Nc1cnn2ccc(N3CCC[C@@H]3c3cc(F)ccc3C(F)F)nc12)N1CCC(O)CC1 [Example 38, (R)—N-(5-(2-(2-(difluoromethyl)-5-fluorophenyl)pyrrolidin-1-yl)pyrazolo[1,5-a]pyrimidin-3-yl)-4-hydroxypiperidine-1-carboxamide]"
4,0.0102 µM,"COc1ccc(F)cc1[C@H]1CCCN1c1ccn2ncc(NC(=O)N3CCC[C@H](O)C3)c2n1 [Example 91, (S)—N-(5-((R)-2-(5-fluoro-2-methoxyphenyl)pyrrolidin-1-yl)pyrazolo[1,5-a]pyrimidin-3-yl)-3-hydroxypiperidine-1-carboxamide]"
5,0.0087 µM,"O=C(Nc1cnn2ccc(N3CCC[C@@H]3c3cc(F)ccc3C(F)F)nc12)N1CC[C@H](O)C1 [Example 37, (S)—N-(5-((R)-2-(2-(difluoromethyl)-5-fluorophenyl)pyrrolidin-1-yl)pyrazolo[1,5-a]pyrimidin-3-yl)-3-hydroxypyrrolidine-1-carboxamide]"
